Results: patent publication US20080206334A1 (priority 2005, published 2008)
Where a name gives a salt, the structure may show the parent alone.

Columns and labels:
[1] = administered orally; cited from earlier work
[2] = cited from earlier work
[3] = Excipient compatibility by DSC; assay type: physicochemical; conditions: 1:1 (w/w) mixtures with xanthan gum, chitosan, magnesium stearate, NaHCO3
Method: Samples of 5-10 mg in weight were placed in hermetically sealed DSC pans. Samples were scanned at a rate of 10° C./min, and thermograms were obtained. The thermal analyzer (DSC) was calibrated prior to use by indium. The calibration procedure was repeated many times prior to DSC runs.

SMILES: CC(C)(C)NCC(O)c1cc(O)cc(O)c1 (stereo not drawn) [Terbutaline sulfate]
- Biological half-life [1]: about 3.6 hrs
- Solubility in water [2]: > 20 mg/mL
- Excipient compatibility (DSC thermograms) [3]: excipients are compatible with Terbutaline sulfate
